Test results: patent US20190092804A1, “URACYL SPIROOXETANE NUCLEOSIDES” (Janssen Sciences Ireland Unlimited Company, priority 2012, published 2019)
Like-named read-outs stand apart in the source and are kept apart here.

Experiments:
[1] = test system: JFH1-HCVcc in primary human hepatocytes; type: cell-based, HCV (JFH1); human hepatocytes; conditions: 3 days
Description: Primary human hepatocytes (PHH) were prepared from patients undergoing partial hepatectomy for metastases or benign tumors. Fresh human hepatocytes were isolated from encapsulated liver fragments using a modification of the two-step collagenase digestion method. Briefly, encapsulated liver tissue was placed in a custom-made perfusion apparatus and hepatic vessels were cannulated with tubing attached multichannel manifold. The liver fragment was initially perfused for 20 min with a prewarmed (37° C.) calcium-free buffer supplemented with ethylene glycol tetraacetic acid (EGTA) followed by perfusion with a prewarmed (37° C.) buffer containing calcium (CaCl2), H2O2) and collagenase 0.05% for 10 min. Then, liver fragment was gently shaken to free liver cells in Hepatocyte Wash Medium. Cellular suspension was filtered through a gauze-lined funnel. Cells were centrifuged at low speed centrifugation. The supernatant, containing damaged or dead hepatocytes, non parenchymal cells and debris was removed and pelleted hepatocytes were re-suspended in Hepatocyte Wash Medium. Viability and cell concentration were determined by trypan blue exclusion test.
Cells were resuspended in complete hepatocyte medium consisting of William's medium (Invitrogen) supplemented with 100 IU/L insulin (Novo Nordisk, France), and 10% heat inactivated fetal calf serum (Biowest, France), and seeded at a density 1.8×10^6 viable cells onto 6 well plates that had been precoated with a type I collagen from calf skin (Sigma-Aldrich, France) The medium was replaced 16-20 hours later with fresh complete hepatocyte medium supplemented with hydrocortisone hemisuccinate (SERB, Paris, France), and cells were left in this medium until HCV inoculation. The cultures were maintained at 37° C. in a humidified 5% CO2 atmosphere.
The PHHs were inoculated 3 days after seeding. JFH1-HCVcc stocks were used to inoculate PHHs for 12 hours, at a multiplicity of infection (MOI) of 0.1 ffu per cell. After a 12-hours incubation at 37° C., the inoculum was removed, and monolayers were washed 3 times with phosphate-buffered saline and incubated in complete hepatocyte medium containing 0.1% dimethylsufoxide as carrier control, 100 IU/ml of IFNalpha as […] or else increasing concentrations of compound 8a. The cultures then were maintained during 3 days.
Total RNA was prepared from cultured cells or from filtered culture supernatants using the RNeasy or Qiamp viral RNA minikit respectively (Qiagen SA, Courtaboeuf, France) according to the manufacturer's recommendations. HCV RNA was quantified in cells and culture supernatants using a strand-specific reverse real-time PCR technique described previously (Carrière M and al 2007):
Reverse transcription was performed using primers described previously located in the […] region of HCV genome, tag-RC1 (5′-[…]-3′) and RC21 (5′-[…]-3′) for the negative and positive strands, respectively. After a denaturation step performed at 70° C. for 8 min, the RNA template was incubated at 4° C. for 5 min in the presence of 200 ng of tag-RC1 primer and 1.25 mM of each deoxynucleoside triphosphate (dNTP) (Promega, Charbonnieres, France) in a total volume of 12 μl.
Reverse transcription was carried out for 60 min at 60° C. in the presence of 20 U RNaseOut™ (Invitrogen, Cergy Pontoise, France) and 7.5 U Thermoscript™ reverse transcriptase (Invitrogen), in the buffer recommended by the manufacturer. An additional treatment was applied by adding 1 μl (2U) RNaseH (Invitrogen) for 20 min at 37° C.
The first round of nested PCR was performed with 2 μl of the cDNA obtained in a total volume of 50 μl, containing 3 U Taq polymerase (Promega), 0.5 mM dNTP, and 0.5 μM RC1 (5′-[…]-3′) and RC21 primers for positive-strand amplification, or Tag (5′-[…]-3′) and RC21 primers for negative strand amplification. […]

[2] = test system: HCV 1b bicistronic subgenomic luciferase reporter replicon clone ET; test: Replicon assays (B), Assay 1; type: cell-based; conditions: Hepatitis C virus, 72 h; 3-day incubation, 2500 cells 384-well luciferase (variation: 3000 cells 96-well qRT-PCR); n = 8
Description: The anti-HCV activity of compound 8a was tested in cell culture with replicon cells generated using reagents from the Bartenschlager laboratory (the HCV 1b bicistronic subgenomic luciferase reporter replicon clone ET). The protocol included a 3-day incubation of 2500 replicon cells in a 384-well format in a nine-point 1:4 dilution series of the compound. Dose response curves were generated based on the firefly luciferase read-out. In a variation of this assay, a 3 day incubation of 3000 cells in a 96-well format in a nine-point dilution series was followed by qRT-PCR Taqman detection of HCV genome, and normalized to the cellular transcript, RPL13 (of the ribosomal subunit RPL13 gene) as a control for compound inhibition of cellular transcription.

[3] = Cytotoxicity (CC50) in Huh-7; type: cell-based; conditions: human, Huh-7 cells; Huh-7 cytotoxicity
Description: The in vitro antiviral activity against HCV of the compounds of formula I can be tested in a cellular HCV replicon system based on Lohmann et al. (1999) Science 285:110-113, with the further modifications described by Krieger et al. (2001) Journal of Virology 75: 4614-4624 (incorporated herein by reference), which is further exemplified in the examples section. This model, while not a complete infection model for HCV, is widely accepted as the most robust and efficient model of autonomous HCV RNA replication currently available. It will be appreciated that it is important to distinguish between compounds that specifically interfere with HCV functions from those that exert cytotoxic or cytostatic effects in the HCV replicon model, and as a consequence cause a decrease in HCV RNA or linked reporter enzyme concentration. Assays are known in the field for the evaluation of cellular cytotoxicity based for example on the activity of mitochondrial enzymes using fluorogenic redox dyes such as resazurin. Furthermore, cellular counter screens exist for the evaluation of non-selective inhibition of linked reporter gene activity, such as firefly luciferase. […]

[4] = test system: HCV type 1b replicon (Huh-7 luc/neo cells); test: Replicon assay (A), Huh-Luc luciferase read-out; type: cell-based, HCV genotype 1b; conditions: Hepatitis C virus, Huh-7, 72 h, read-out: EC50 (μM) (HCV)
Description: The compounds of formula I were examined for activity in the inhibition of HCV-RNA replication in a cellular assay. […] The cellular assay was based on a bicistronic expression construct, as described by Lohmann et al. (1999) Science vol. 285 pp. 110-113 with modifications described by Krieger et al. (2001) Journal of Virology 75: 4614-4624, in a multi-target screening strategy.
In essence, the method was as follows. The assay utilized the stably transfected cell line Huh-7 luc/neo (hereafter referred to as Huh-Luc). This cell line harbors an RNA encoding a bicistronic expression construct comprising the wild type NS3-NS5B regions of HCV type 1b translated from an internal ribosome entry site (IRES) from encephalomyocarditis virus (EMCV), preceded by a reporter portion (FfL-luciferase), and a selectable marker portion (neo^R, neomycine phosphotransferase). […]
The replicon cells were plated in 384-well plates in the presence of the test and control compounds which were added in various concentrations. Following an incubation of three days, HCV replication was measured by assaying luciferase activity (using standard luciferase assay substrates and reagents and a Perkin Elmer ViewLux™ ultraHTS microplate imager). […] The inhibitory activity of the compound on luciferase activity was monitored on the Huh-Luc cells, enabling a dose-response curve for each test compound. […]

[5] = test system: HCV 1b bicistronic subgenomic luciferase reporter replicon clone ET or Huh-Luc-Neo; test: Replicon assays (B), Assay 3; type: cell-based; conditions: Hepatitis C virus, 72 h, 3-day incubation, 8×10^3 or 2×10^4 cells, 96-well, n = 1
Description: The anti-HCV activity of compound 8a was tested in cell culture with replicon cells generated using reagents from the Bartenschlager laboratory (the HCV 1b bicistronic subgenomic luciferase reporter replicon clone ET or Huh-Luc-Neo). The protocol included either a 3-day incubation of 8×10^3 cells or 2×10^4 cells in a 96-well format in an eight-point 1:5 dilution series of the compound. Dose response curves were generated based on the luciferase read-out.

HCV G1a = test: In vivo efficacy assay, humanized hepatocyte mouse model; parameters: species or system HCV G1a-infected PXB-mice; conditions: PXB-mice
Description: The in vivo efficacy of compound 8a and CAS-1375074-52-4 was determined in a humanized hepatocyte mouse model (PBX-mouse) as previously described in Inoue et. al (Hepatology. 2007 April; 45(4):921-8) and Tenato et. al. (Am J Pathol 2004; 165-901-912) with the following specification: Test animals: HCV […]-infected PXB-mice, male or female, >70% replacement index of human hepatocytes. Dosing was performed p.o for 7 days at doses indicated below wherein QD represents a single dose per day, BID represents two doses per day. Efficacy of compound 8a was compared to CAS-1375074-52-4.

[6] = test system: HCV 1b bicistronic subgenomic luciferase reporter replicon clone ET or Huh-Luc-Neo; test: Replicon assays (B), Assay 2; type: cell-based; conditions: Hepatitis C virus, 72 h, 3-day incubation, 2×10^4 cells, 96-well, n = 4, read-out: Average EC50 value (8a), Assay 2
Description: The anti-HCV activity of compound 8a was tested in cell culture with replicon cells generated using reagents from the Bartenschlager laboratory (the HCV 1b bicistronic subgenomic luciferase reporter replicon clone ET or Huh-Luc-Neo). The protocol included a 3-day incubation of 2×10^4 replicon cells in a 96-well format in a six-point 1:5 dilution series of the compound. Dose response curves were generated based on the luciferase read-out.

CC(C)O[P@@]1(=O)OC[C@H]2O[C@@H](n3ccc(=O)[nH]c3=O)[C@@]3(CCO3)[C@@H]2O1 [Compound 8a]
positive strand HCV-RNA levels in primary human hepatocytes ([1]; Exp. 1, 0.195 μM, HCV control 3.56): 2.18 10^6 HCV RNA copies/μg of total RNA
positive strand HCV-RNA levels in primary human hepatocytes ([1]; Exp. 1, 0.78 μm, HCV control 3.56): 2.25 10^6 HCV RNA copies/μg of total RNA
positive strand HCV-RNA levels in primary human hepatocytes ([1]; Exp. 1, 3.12 μm, HCV control 3.56): 1.09 10^6 HCV RNA copies/μg of total RNA
positive strand HCV-RNA levels in primary human hepatocytes ([1]; Exp. 1, 12.5 μm, HCV control 3.56): 2.17 10^6 HCV RNA copies/μg of total RNA
positive strand HCV-RNA levels in primary human hepatocytes ([1]; Exp. 1, 50 μm, HCV control 3.56): 0.94 10^6 HCV RNA copies/μg of total RNA
positive strand HCV-RNA levels in primary human hepatocytes ([1]; Exp. 2, 0.195 μM, HCV control 5.53): 1.12 10^6 HCV RNA copies/μg of total RNA
positive strand HCV-RNA levels in primary human hepatocytes ([1]; Exp. 2, 0.78 μm, HCV control 5.53): 1.3 10^6 HCV RNA copies/μg of total RNA
positive strand HCV-RNA levels in primary human hepatocytes ([1]; Exp. 2, 3.12 μm, HCV control 5.53): 0.94 10^6 HCV RNA copies/μg of total RNA
positive strand HCV-RNA levels in primary human hepatocytes ([1]; Exp. 2, 12.5 μm, HCV control 5.53): 1.3 10^6 HCV RNA copies/μg of total RNA
positive strand HCV-RNA levels in primary human hepatocytes ([1]; Exp. 2, 50 μm, HCV control 5.53): 1.33 10^6 HCV RNA copies/μg of total RNA
EC50 [2]: 57 µM
CC50 [3]: > 100 µM
EC50 [4]: 0.13 µM
EC50 [5]: > 100 µM
log drop HCV viral RNA after dosing for 7 days (HCV G1a; 50 mg/kg BID p.o.): clear log drop
log drop HCV viral RNA after dosing for 7 days (HCV G1a; 100 mg/kg BID p.o.): most pronounced log drop effect in viral RNA
log drop HCV viral RNA after dosing for 7 days (HCV G1a; 100 mg/kg QD p.o.): clear log drop
log drop HCV viral RNA after dosing for 7 days (HCV G1a; 200 mg/kg QD p.o.): clear log drop
EC50 [6]: 17.5 µM

IFNα
positive strand HCV-RNA levels in primary human hepatocytes ([1]; Exp. 1, 100 IU/mL, HCV control 3.56): 1.48 10^6 HCV RNA copies/μg of total RNA
positive strand HCV-RNA levels in primary human hepatocytes ([1]; Exp. 2, 100 IU/mL, HCV control 5.53): 1.59 10^6 HCV RNA copies/μg of total RNA
